Reference: patent US7709498B2, “Quinoline derivatives as antibacterial agents” (Janssen Pharmaceutica N.V., priority 2005, dated 2010)
≈ marks a conversion by molar mass, not a printed value.

Key:
Type in all cases: cell-based
[1] = system: methicilline resistant Staphylococcus aureus (MRSA) (a clinical isolate from the University of Antwerp); assay: Microtitre plate assay, IC90 determination, STA RMETH; settings: 90% inhibitory concentration for bacterial growth, 37° C., resazurin fluorescence; for IC90 (μg/ml) STA RMETH: 24 hours
Protocol: (§1) The bacteria used in this study were grown overnight in flasks containing 100 ml Mueller-Hinton Broth (Becton Dickinson—cat. no. 275730) in sterile de-ionized water, with shaking, at 37° C. Stocks (0.5 ml/tube) were stored at −70° C. until use. Bacteria titrations were performed in microtiter plates to detect the TCID50, in which the TCID50 represents the dilution that gives rise to bacterial growth in 50% of inoculated cultures.
(§2) In general, an inoculum level of approximately 100 TCID50 was used for susceptibility testing.
(§3) Flat-bottom, sterile 96-well plastic microtiter plates were filled with 180 μl of sterile deionized water, supplemented with 0.25% BSA. Subsequently, stock solutions (7.8× final test concentration) of compounds were added in 45 μl volumes in column 2. Serial five-fold dilutions (45 μl in 180 μl) were made directly in the microtiter plates from column 2 to reach column 11. Untreated control samples with (column 1) and without (column 12) inoculum were included in each microtiter plate. Depending on the bacteria type, approximately 10 to 60 CFU per well of bacteria inoculum (100 TCID50), in a volume of 100 μl in 2.8× Mueller-Hinton broth medium, was added to the rows A to H, except column 12. The same volume of broth medium without inoculum was added to column 12 in row A to H. The cultures were incubated at 37° C. for 24 hours under a normal atmosphere (incubator with open air valve and continuous ventilation). At the end of incubation, one day after inoculation, the bacterial growth was quantitated fluorometrically. Therefore resazurin (0.6 mg/ml) was added in a volume of 20 μl to all wells 3 hours after inoculation, and the plates were re-incubated overnight. A change in colour from blue to pink indicated the growth of bacteria. The fluorescence was read in a computer-controlled fluorometer (Cytofluor Biosearch) at an excitation wavelength of 530 nm and an emission wavelength of 590 nm. The % growth inhibition achieved by the compounds was calculated according to standard methods. The IC90 (expressed in μg/ml) was defined as the 90% inhibitory concentration for bacterial growth.
(§4) BSU 3639 means Bacillus subtilis (ATCC43639); ECO 25922 means Escherichia coli (ATCC25922); EFA 14506 means Enterococcus faecalis (ATCC14506); EFA 29212 means Enterococcus faecalis (ATCC29212); LMO 49594 means Listeria monocytogenes (ATCC49594); PAE 27853 means Pseudomonas aeruginosa (ATCC27853); SMU 33402 means Streptococcus mutans (ATCC33402); SPN 6305 means Streptococcus pneumoniae (ATCC6305); SPY 8668 means Streptococcus pyogens (ATCC8668); STA 43300 means Staphylococcus aureus (ATCC43300); STA 25923 means Staphylococcus aureus (ATCC25923); STA 29213 means Staphylococcus aureus (ATCC29213); STA RMETH means methicilline resistant Staphylococcus aureus (MRSA) (a clinical isolate from the University of Antwerp). ATCC means American type tissue culture.

[2] = system: Pseudomonas aeruginosa (ATCC27853); assay: Microtitre plate assay, IC90 determination, PAE 27853; settings: 90% inhibitory concentration for bacterial growth, 37° C., 24 hours, resazurin fluorescence
Protocol: as §1, §2, §3, §4

[3] = system: Streptococcus pneumoniae (ATCC6305); assay: Microtitre plate assay, IC90 determination, SPN 6305; settings: 90% inhibitory concentration for bacterial growth, 37° C., 24 hours, resazurin fluorescence
Protocol: as §1, §2, §3, §4

[4] = system: Staphylococcus aureus (ATCC25923); assay: Microtitre plate assay, IC90 determination, STA 25923; settings: 90% inhibitory concentration for bacterial growth, 37° C., resazurin fluorescence; for IC90 (μg/ml) STA 25923: 24 hours
Protocol: as §1, §2, §3, §4

[5] = system: Enterococcus faecalis (ATCC14506); assay: Microtitre plate assay, IC90 determination, EFA 14506; settings: 90% inhibitory concentration for bacterial growth, 37° C., 24 hours, resazurin fluorescence
Protocol: as §1, §2, §3, §4

[6] = system: Bacillus subtilis (ATCC43639); assay: Microtitre plate assay, IC90 determination, BSU 43639; settings: 90% inhibitory concentration for bacterial growth, 37° C., 24 hours, resazurin fluorescence
Protocol: as §1, §2, §3, §4

[7] = system: Listeria monocytogenes (ATCC49594); assay: Microtitre plate assay, IC90 determination, LMO 49594; settings: 90% inhibitory concentration for bacterial growth, 37° C., 24 hours, resazurin fluorescence
Protocol: as §1, §2, §3, §4

[8] = system: Streptococcus pyogens (ATCC8668); assay: Microtitre plate assay, IC90 determination, SPY 8668; settings: 90% inhibitory concentration for bacterial growth, 37° C., 24 hours, resazurin fluorescence
Protocol: as §1, §2, §3, §4

[9] = system: Enterococcus faecalis (ATCC29212); assay: Microtitre plate assay, IC90 determination, EFA 29212; settings: 90% inhibitory concentration for bacterial growth, 37° C., resazurin fluorescence; for IC90 (μg/ml) EFA 29212: 24 hours
Protocol: as §1, §2, §3, §4

[10] = system: Staphylococcus aureus (ATCC29213); assay: Microtitre plate assay, IC90 determination, STA 29213; settings: 90% inhibitory concentration for bacterial growth, 37° C., 24 hours, resazurin fluorescence
Protocol: as §1, §2
Flat-bottom, sterile 96-well plastic microtiter plates were filled with 180 μl of sterile deionized water, supplemented with 0.25% BSA. Subsequently, stock solutions (7.8× final test concentration) of compounds were added in 45 μl volumes in column 2. Serial five-fold dilutions (45 μl in 180 μl) were made directly in the microtiter plates from column 2 to reach column 11. Untreated control samples with (column 1) and without (column 12) inoculum were included in each microtiter plate. […] At the end of incubation, one day after inoculation, the bacterial growth was quantitated fluorometrically. […] The fluorescence was read in a computer-controlled fluorometer (Cytofluor Biosearch) at an excitation wavelength of 530 nm and an emission wavelength of 590 nm. The % growth inhibition achieved by the compounds was calculated according to standard methods. […]

[11] = system: Streptococcus mutans (ATCC33402); assay: Microtitre plate assay, IC90 determination, SMU 33402; settings: 90% inhibitory concentration for bacterial growth, 37° C., 24 hours, resazurin fluorescence
Protocol: as §1, §2, §3, §4

[12] = system: Staphylococcus aureus (ATCC43300); assay: Microtitre plate assay, IC90 determination, STA 43300; settings: 90% inhibitory concentration for bacterial growth, 37° C., 24 hours, resazurin fluorescence
Protocol: as §1, §2, §3, §4

| IC90 (μg/ml) PAE 27853 [2] [µg/mL] | IC90 (μg/ml) SPN 6305 [3] [µg/mL] | IC90 (μg/ml) EFA 14506 [5] [µg/mL] | IC90 (μg/ml) BSU 43639 [6] [µg/mL] | IC90 (μg/ml) LMO 49594 [7] [µg/mL] | IC90 (μg/ml) SPY 8668 [8] [µg/mL] | IC90 (μg/ml) STA 29213 [10] [µg/mL] | IC90 (μg/ml) SMU 33402 [11] [µg/mL] | IC90 (μg/ml) STA 43300 [12] [µg/mL] | IC90 ([9]; Enterococcus faecalis, ATCC29212, 24 h, read-out: IC90 (μg/ml) EFA 29212) [µg/mL] | IC90 ([4]; Staphylococcus aureus, ATCC25923, 24 h, read-out: IC90 (μg/ml) STA 25923) [µg/mL] | Structure (SMILES) | IC90 (μg/ml) STA RMETH [1] [µg/mL] | IC90 (μg/ml) STA 25923 [4] [µg/mL] | IC90 (μg/ml) EFA 29212 [9] [µg/mL] | IC90 ([1]; Staphylococcus aureus, MRSA, 24 h, read-out: IC90 (μg/ml) STA RMETH) [µg/mL] |
| --- | --- | --- | --- | --- | --- | --- | --- | --- | --- | --- | --- | --- | --- | --- | --- |
| – | 1.1 (≈ 2.03 µM) | – | – | – | 10.8 (≈ 19.9 µM) | 12.1 (≈ 22.3 µM) | 10.8 (≈ 19.9 µM) | – | – | – | CCNCCC(O)(c1ccc(F)cc1F)C(c1ccccc1)c1cc2cc(Br)ccc2nc1OC (racemic) [Compound A] | – | 10.8 (≈ 19.9 µM) | – | – |
| 2.2 (≈ 3.96 µM) | 2.8 (≈ 5.04 µM) | 11.1 (≈ 20 µM) | 11.1 (≈ 20 µM) | 11.1 (≈ 20 µM) | 8.8 (≈ 15.8 µM) | – | 3.5 (≈ 6.3 µM) | 11.1 (≈ 20 µM) | – | – | COc1nc2ccc(Br)cc2cc1C(c1ccccc1)C(O)(CCN(C)C)c1cccc2ccccc12 (centres unmarked) [Compound 13] | – | 11.1 (≈ 20 µM) | 8.8 (≈ 15.8 µM) | – |
| 5.0 (≈ 9 µM) | 6.2 (≈ 11.2 µM) | 9.9 (≈ 17.8 µM) | 11.1 (≈ 20 µM) | 2.5 (≈ 4.5 µM) | 2.8 (≈ 5.04 µM) | – | 12.4 (≈ 22.3 µM) | 5.6 (≈ 10.1 µM) | 5 (≈ 9 µM) | 9.9 (≈ 17.8 µM) | COc1nc2ccc(Br)cc2cc1C(c1ccccc1)C(O)(CCN(C)C)c1cccc2ccccc12 (centres unmarked) [Compound 14] | – | – | – | 14 (≈ 25.2 µM) |

| Structure (SMILES) | IC90 (μg/ml) PAE 27853 [2] [µg/mL] | IC90 (μg/ml) SPN 6305 [3] [µg/mL] | IC90 (μg/ml) EFA 14506 [5] [µg/mL] | IC90 (μg/ml) BSU 43639 [6] [µg/mL] | IC90 (μg/ml) LMO 49594 [7] [µg/mL] | IC90 (μg/ml) SPY 8668 [8] [µg/mL] | IC90 (μg/ml) STA 29213 [10] [µg/mL] | IC90 (μg/ml) SMU 33402 [11] [µg/mL] | IC90 (μg/ml) STA 43300 [12] [µg/mL] | IC90 ([9]; Enterococcus faecalis, ATCC29212, 24 h, read-out: IC90 (μg/ml) EFA 29212) [µg/mL] | IC90 ([4]; Staphylococcus aureus, ATCC25923, 24 h, read-out: IC90 (μg/ml) STA 25923) [µg/mL] | IC90 (μg/ml) STA RMETH [1] [µg/mL] | IC90 (μg/ml) STA 25923 [4] [µg/mL] | IC90 (μg/ml) EFA 29212 [9] [µg/mL] | IC90 ([1]; Staphylococcus aureus, MRSA, 24 h, read-out: IC90 (μg/ml) STA RMETH) [µg/mL] |
| --- | --- | --- | --- | --- | --- | --- | --- | --- | --- | --- | --- | --- | --- | --- | --- |
| COc1nc2ccc(Br)cc2cc1C(c1ccccc1)C(O)(CCN1CCN(C)CC1)c1ccc2ccccc2c1 (racemic) [Compound 137] | 21.2 (≈ 34.7 µM) | 23.8 (≈ 39 µM) | – | – | – | – | – | – | – | – | – | 21.2 (≈ 34.7 µM) | 8.4 (≈ 13.8 µM) | – | – |
| COc1nc2ccc(Br)cc2cc1C(c1ccccc1)C(O)(CCN1CCN(C)CC1)c1cc(Br)cc2ccccc12 (racemic) [Compound 151] | – | – | 15.4 (≈ 22.3 µM) | – | – | – | – | – | – | – | – | 15.4 (≈ 22.3 µM) | – | – | – |
| COc1nc2ccc(Br)cc2cc1C(c1ccccc1)C(O)(CCN1CCN(C)CC1)c1ccc2cc(Br)ccc2c1 (racemic) [Compound 154] | – | – | – | 10.9 (≈ 15.8 µM) | 27.4 (≈ 39.7 µM) | 27.4 (≈ 39.7 µM) | – | – | – | – | – | 24.5 (≈ 35.5 µM) | 13.8 (≈ 20 µM) | 27.4 (≈ 39.7 µM) | – |
